From US4198508A, “Process for preparing 4-substituted imidazo[1,2-a]quinoxalines” (Westwood Pharmaceuticals Inc., priority 1977, dated 1980)

Experiments:
Trichophyton rubrum = test: antifungal activity, agar dilution method; type: cell-based, Trichophyton rubrum (ATCC No. 10218 and 14001)
Protocol: (§1) Various compounds of this invention display antifungal and anti-yeast activity.
(§2) In Table IX below are listed the antifungal activity of a number of compounds encompassed in the present invention. These were determined by the agar dilution method as described in Chapters 2 and 3 of Methods in Microbiology, Vol. 7B, edited by J. R. Norris and D. W. Ribbons, Academic Press, New York, 1972.

Trichophyton ajelloi = test: antifungal activity, agar dilution method; type: cell-based
Protocol: as §1, §2

[1] = tested on: Trichophyton mentagrophytes; test: antifungal activity, agar dilution method; type: cell-based, Trichophyton mentagrophytes (ATCC No. 8757 and 9129)
Protocol: as §1, §2

[2] = tested on: humeral or antibody response; test: hemolysin test in mice; type: in vivo, mouse; conditions: s.c., dose to reduce antibody activity by 50% versus control
rat paw edema = rat paw edema assay, oral dosing; type: in vivo; conditions: four hours after drug
Protocol: The anti-inflammatory activity of representative compounds of this invention was determined by the rat paw edema assay both by local administration (Table XI below) and by oral dosing (Table XII below). For the oral dosing, the procedure of C. A. Winter, E. A. Risley and G. W. Nuss, Proc. Soc. Exp. Biol. Med. 111, 544 (1962) was employed with measurement taken four hours after the drug was administered. The local administration tests were carried out similarly except the irritant (carrageenan) and the test compound were injected simultaneously at time zero. Tables XI and XII report the anti-inflammatory activity of the compounds tested as % difference in the edema or swelling as compared with the control. These Tables also give the response in many instances of more than one dose level of the same drug.

[3] = tested on: cell-mediated immune response to the antigen, Mycobacterium tuberculosis H37Ra; test: delayed hypersensitivity test; type: in vivo, mouse; conditions: mice, s.c.; dose to reduce edema of cell-mediated immune response by 60% versus control
Protocol: The immunosuppressant activities of the compounds of this invention were determined via the hemolysin test in mice and by the delayed hypersensitivity test. The hemolysin test used is that described in Methods in Immunology, edited by D. H. Campbell et al, W. A. Benjamin, New York 1963 pages 172-175, and measures humeral or antibody response. The delayed hypersensitivity test measures the effect of a test compound on the ability of a subject mouse to mount a cell-mediated immune response to the antigen, Mycobacterium tuberculosis H37Ra. The mouse is sensitized to the antigen by subcutaneous administration in the base of the tail. The development of the delayed hypersensitivity response may be measured at any time beginning six days after sensitization but is usually done on the ninth day as follows: The right hind paw is injected with purified protein derivative (tuberculin) while the left hind paw (control) receives physiological saline. Both paw volumes are measured after twenty-four hours and significant increase in the volume of the right hand paw is taken as a measure of an effective delayed hypersensitivity response. All compounds were administered by the subcutaneous route.
The D.H.S. (ED60) mg./kg. s.c. value appearing in column 3 is an expression of the effectiveness of the drug in reducing the edema that accompanies the cell-mediated immune response. […]

| SMILES | Parts Per Million Inhibitions of T. rubrum (Trichophyton rubrum) [Parts Per Million] | Parts Per Million Inhibitions of T. ajelloi (Trichophyton ajelloi) [Parts Per Million] | Parts Per Million Inhibitions of T. mentagrophytes [1] [Parts Per Million] | HL(ED50) [2] [mg/kg] | %Difference from Control (rat paw edema; 100 mg/kg) [%] | %Difference from Control (rat paw edema; 400 mg/kg) [%] | D.H.S. (ED60) [3] [mg/kg] |
| --- | --- | --- | --- | --- | --- | --- | --- |
| O=[N+]([O-])c1ccc(Nc2nc3ccccc3n3ccnc23)cc1 [Compound 189] | 100 | 100 | – | – | – | – | – |
| FC(F)(F)c1cccc(-c2nc3ccccc3n3ccnc23)c1 [Compound 136] | – | – | 100 | 2.7 | -9 | -25 | > 50 |
